Bridge positions count the residues as written; N and C are the ends. Square brackets hold non-standard residues; d marks the D form. Peptide text beside a SMILES is read from it. R8 = C=CCCCCCC[C@@](C)(N)C(=O)O; S5 = C=CCCC[C@](C)(N)C(=O)O
What was measured:
circular dichroism = details: 10 mM phosphate; pH 7.5; 25 °C; 50 uM
[1] = target: 5HB, a recombinant protein containing 3 HR1 domains covalently attached to 2 HR2 domains; details: competition with fluorescently labeled T108 probe (2 nM), 5HB 50 nM, 10 min preincubation + 30 min room temperature, duplicates
[2] = tested on: recombinant GFP-expressing RSV (strain A2) in A549 cells; type: cell-based, human respiratory syncytial virus; details: A549 cells, eGFP RSV, GFP-positive cells by FACS 24 h p.i.
Description: A549 cells were infected with a recombinant green fluorescent protein (GFP)-expressing RSV (strain A2) ([23]), and the inhibitory activity of the peptide was quantified by flow cytometry.
Each peptide was diluted 3 times by 2-fold serial dilutions. eGFP RSV virus at an MOI of 0.5 was used for the infection, and GFP-positive cells were counted by FACS analysis 24 h p.i. The GFP data were normalized to the fluorescence values observed with virus only and plotted as percent inhibition.
Serial 4-fold dilutions of inhibitors were mixed with eGFP-encoding RSV virus ([23]) with a volume of virus required to achieve approximately 50% of infection in medium containing 2% fetal calf serum. The resulting mixture was added to 24-well plates containing A549 cells. Cells were incubated for 2 h at 37°C, the medium was replaced, and cells were incubated for an additional 24 h. Cells were treated with 300 μl of trypsin for 10 min at 37°C, and the detached cells were diluted in 1 ml of culture medium. Following centrifugation at 1,700 rpm, the pellet was resuspended in 300 μl of PBS–1% fetal bovine serum (FBS) (vol/vol) and GFP-positive cells were counted by fluorescence-activated cell sorter (FACS) analysis. The GFP data were normalized to the fluorescence value observed with virus only. The resulting inhibition curves were fitted in Igor Pro as described above.

[3] = Far-UV circular dichroism, α-helical content; type: physicochemical; details: CD, indicator of α-helical stability
Description: The circular dichroism spectra were acquired on a Chirascan spectropolarimeter. The samples were prepared in 10 mM phosphate buffer, pH 7.5, at a peptide concentration of 50 μM. Data were recorded at 25°C by step scan from 180 nm to 260 nm in a 0.5-mm path length quartz cell using 1-nm wavelength increments and a response time of 1 s. The data were converted to per residue molar ellipticity units [θ] (degree per square centimeter per decimole per residue) and smoothed using the Igor Pro software. The percentage of helicity was calculated as described previously ([35]).

[4] = Proteolytic stability assay, chymotrypsin; type: in vitro ADME; details: chymotrypsin (isolated protease); 10 μl peptide 0.29 mM in 990 μl 100 mM Tris-HCl pH 8.0, 10 mM CaCl2; 10 μl chymotrypsin 50 μg/ml; 25°C; LC-MS of intact peptide, exponential decay fit; 3 experiments
Description: (§1) This is an important parameter to assess for the development of peptide therapeutics. Peptides 4bb, 4ca, and 4a, and the unstapled analog peptide 4, as well as both SAH-RSVFBD isomers, were treated with chymotrypsin or trypsin, and the samples were analyzed by LC/MS to quantify the reaction products over time. […] In comparison, both SAH-RSVFBD isomers were more susceptible to proteolytic degradation, with half-lives of approximately 7 h and 5 min against chymotrypsin and trypsin, respectively.
(§2) In vitro proteolytic degradation was measured via LC-MS using an Agilent Infinity 1280 UHPLC system coupled to an Agilent quadrupole time of flight (QTOF) 6530 instrument with an Agilent Jet Stream electrospray ionization (AJS ESI) source (all from Agilent Technologies, Waldbronn, Germany). Five microliters of digested sample was injected onto a C18 column (Zorbax Eclipse Plus RRHD, 1.8 μm, 2.1 by 100 mm; Agilent Technologies, Waldbronn, Germany) equilibrated with solvent A (5% acetonitrile, 0.2% formic acid) and eluted with a flow rate of 0.4 ml/min over a 5 to 95% gradient of solvent B (95% acetonitrile, 0.2% formic acid) in 5 min, followed by 1.5 min at 95% and 0.5 min posttime. The AJS ESI source was operated with a capillary voltage of 4,000 V and a nozzle voltage of 600 V with a drying gas temperature of 325°C and flow rate of 10 liters/min, nebulizing gas pressure of 20 lb/in^2, and a sheath gas temperature of 300°C and flow rate of 11 liters/min. Mass spectra were acquired in the positive-ion mode from 100 to 3,200 m/z at a rate of 1 scan per second in extended dynamic range (2 GHz) mode. The fragmentor, skimmer, and octopole RF voltages were set to 200, 60, and 750 V, respectively. Data were acquired and analyzed with the Agilent MassHunter Workstation (version B.05).
(§3) Peptide digestion was performed as follows: 10 μl of peptide at 0.29 mM in 50:50 acetonitrile-water was dissolved in 990 μl 100 mM Tris-HCl (pH 8.0) with 10 mM CaCl2. Following measurement of the undigested (t0) sample, 10 μl of chymotrypsin at 50 μg/ml in 100 mM Tris-HCl (pH 8.0) with 10 mM CaCl2 was added, and the sample was vortexed and placed immediately in the autosampler, set to 25°C. The level of intact peptide was quantified by serial injection over time. Integration of the intact peptide compound chromatogram was performed using the Agilent Molecular Feature Extraction (MFE) algorithm. The value of the fit at t = 0 min was used to calculate the percentage of the intact peptide at each point as follows: Percent intact (t) = [Vol (t)/Volt0] × 100, where Vol is the total volume calculated using Find Compounds by Molecular Feature and Volt0 is the value of the fit at time t = 0. A plot of the intact peptide MFE peak area over time gave an exponential decay curve, from which the half-life was determined using MatLab […].

[5] = Proteolytic stability assay, trypsin; type: in vitro ADME; details: trypsin (isolated protease); 100 mM Tris-HCl pH 8.0, 10 mM CaCl2, 25°C; LC-MS of intact peptide, exponential decay fit; 3 experiments
Description: as §1, §2
as §3, with “Integration of the intact peptide compound chromatogram was performed using the Agilent Molecular Feature Extraction (MFE) algorithm.” left out

SMILES	helicity (circular dichroism) [%]	Kd [1] [µM]	inhibition of RSV-eGFP infection (in words) [2]	θ208/θ222 molar ellipticity ratio [3]	half-life at 2.9 µM [4] [h]	half-life [5] [min]
CC[C@H](C)[C@H](NC(=O)[C@H](CCCCN)NC(=O)[C@]1(C)CCCC=CCCCCCC[C@@](C)(NC(=O)[C@H](CC(=O)O)NC(=O)[C@H](Cc2ccccc2)NC(=O)[C@H](CCC(=O)O)NC(=O)[C@H](CC(=O)O)NC(=O)[C@H](CO)NC(=O)[C@@H]2CCCN2C(=O)[C@H](Cc2ccccc2)NC(=O)[C@H](CCC(=O)O)NC(C)=O)C(=O)N[C@@H](CO)C(=O)N[C@@H]([C@@H](C)CC)C(=O)N[C@@H](CO)C(=O)N[C@@H](CCC(N)=O)C(=O)N[C@@H](C(C)C)C(=O)N[C@@H](CC(N)=O)C(=O)N1)C(=O)N[C@@H](CC(N)=O)C(N)=O [Peptide 1b] (Ac-EFPSDEFD[R8]SISQVN[S5]KIN-NH2; staple 9-16)	19.8	47 ± 6	none	–	–	–
CC[C@H](C)[C@H](NC(=O)[C@H](CCCCN)NC(=O)[C@H](CCC(=O)O)NC(=O)[C@H](CC(N)=O)NC(=O)[C@@H](NC(=O)[C@H](CCC(N)=O)NC(=O)[C@H](CO)NC(=O)[C@@H](NC(=O)[C@H](CO)NC(=O)[C@H](C)NC(=O)[C@]1(C)CCCC=CCCC[C@](C)(NC(=O)[C@@H]2CCCN2C(=O)[C@H](Cc2ccccc2)NC(=O)[C@H](CCC(=O)O)NC(C)=O)C(=O)N[C@@H](CC(=O)O)C(=O)N[C@@H](CCC(=O)O)C(=O)N[C@@H](Cc2ccccc2)C(=O)N1)[C@@H](C)CC)C(C)C)C(=O)N[C@@H](CC(N)=O)C(N)=O [Peptide 1d] (Ac-EFP[S5]DEF[S5]ASISQVNEKIN-NH2; staple 4-8)	34.3	8 ± 4	none	–	–	–
CC[C@H](C)[C@H](NC(=O)[C@H](CCCCN)NC(=O)[C@]1(C)CCCC=CCCC[C@](C)(NC(=O)[C@@H](NC(=O)[C@H](CO)NC(=O)[C@]2(C)CCCC=CCCC[C@](C)(NC(=O)[C@H](CO)NC(=O)[C@@H]3CCCN3C(=O)[C@H](Cc3ccccc3)NC(=O)[C@H](CCC(=O)O)NC(C)=O)C(=O)N[C@@H](CCC(=O)O)C(=O)N[C@@H](Cc3ccccc3)C(=O)N[C@@H](CC(=O)O)C(=O)N2)[C@@H](C)CC)C(=O)N[C@@H](CCC(N)=O)C(=O)N[C@@H](C(C)C)C(=O)N[C@@H](CC(N)=O)C(=O)N1)C(=O)N[C@@H](CC(N)=O)C(N)=O [Peptide 1eg] (Ac-EFPS[S5]EFD[S5]SI[S5]QVN[S5]KIN-NH2; staple 5-9, 12-16)	35.3	24 ± 4	–	~1	–	–
CC[C@H](C)[C@@H]1NC(=O)[C@H](CO)NC(=O)[C@](C)(NC(=O)[C@H](CC(=O)O)NC(=O)[C@H](Cc2ccccc2)NC(C)=O)CCCCCCC=CCCC[C@@](C)(C(=O)N[C@@H](CCCCN)C(=O)N[C@H](C(=O)N[C@@H](CC(N)=O)C(=O)N[C@@H](CCC(N)=O)C(=O)N[C@@H](CO)C(=O)N[C@@H](CC(C)C)C(=O)N[C@@H](C)C(=O)N[C@@H](Cc2ccccc2)C(=O)N[C@H](C(=O)N[C@]2(C)CCCCCCC=CCCC[C@@](C)(C(=O)N[C@@H](CC(N)=O)C(=O)N[C@H](C(=O)N[C@@H](CC(N)=O)C(=O)N[C@@H](C)C(=O)NCC(=O)N[C@@H](CCCCN)C(=O)N[C@@H](CO)C(=O)N[C@H](C(N)=O)[C@@H](C)O)C(C)C)NC(=O)[C@H](CC(C)C)NC(=O)[C@H](CC(C)C)NC(=O)[C@H](CCC(=O)O)NC(=O)[C@H](CC(=O)O)NC(=O)[C@H](CO)NC(=O)[C@H](CCCCN)NC2=O)[C@@H](C)CC)[C@@H](C)CC)NC(=O)[C@H](CC(N)=O)NC(=O)[C@H](C(C)C)NC(=O)[C@H](CCC(N)=O)NC(=O)[C@H](CO)NC1=O [RSV-SAHBD (E), reference compound]	–	–	–	–	6.5	1.2
CC[C@H](C)[C@H](NC(=O)[C@H](CCCCN)NC(=O)[C@H](CCC(=O)O)NC(=O)[C@H](CC(N)=O)NC(=O)[C@@H](NC(=O)[C@]1(C)CCCC=CCCC[C@](C)(NC(=O)[C@H](CC(=O)O)NC(=O)[C@H](Cc2ccccc2)NC(=O)[C@H](CCC(=O)O)NC(=O)[C@H](CC(=O)O)NC(=O)[C@H](CO)NC(=O)[C@@H]2CCCN2C(=O)[C@H](Cc2ccccc2)NC(=O)[C@H](CCC(=O)O)NC(C)=O)C(=O)N[C@@H](CO)C(=O)N[C@@H]([C@@H](C)CC)C(=O)N[C@@H](CO)C(=O)N1)C(C)C)C(=O)N[C@@H](CC(N)=O)C(N)=O [Peptide 1f] (Ac-EFPSDEFD[S5]SIS[S5]VNEKIN-NH2; staple 9-13)	35.2	7.4 ± 1.3	none	–	–	–
CC[C@H](C)[C@H](NC(=O)[C@H](CCCCN)NC(=O)[C@H](CCC(=O)O)NC(=O)[C@H](CC(N)=O)NC(=O)[C@@H](NC(=O)[C@H](CCC(N)=O)NC(=O)[C@]1(C)CCCC=CCCCCCC[C@@](C)(NC(=O)[C@H](CO)NC(=O)[C@@H]2CCCN2C(=O)[C@H](Cc2ccccc2)NC(=O)[C@H](CCC(=O)O)NC(C)=O)C(=O)N[C@@H](CCC(=O)O)C(=O)N[C@@H](Cc2ccccc2)C(=O)N[C@@H](CC(=O)O)C(=O)N[C@@H](C)C(=O)N[C@@H](CO)C(=O)N[C@@H]([C@@H](C)CC)C(=O)N1)C(C)C)C(=O)N[C@@H](CC(N)=O)C(N)=O [Peptide 1a] (Ac-EFPS[R8]EFDASI[S5]QVNEKIN-NH2; staple 5-12)	14.2	9.8 ± 1.5	none	–	–	–
